Source: patent publication US20230235374A1, “High Throughput Assays for Detecting Translation Readthrough Inducers” (The Trustees of the University of Pennsylvania, priority 2021, published 2023)

Tests used:
[1] = target: T1, near-cognate aa-tRNA.eEF1A.GTP complex (TC) binding at a stop codon (Saccharomyces cerevisiae, UniProt P02994); conditions: Ng et al., 2021; cited from earlier work
T1 sequence (P02994 2-458 limits assumed): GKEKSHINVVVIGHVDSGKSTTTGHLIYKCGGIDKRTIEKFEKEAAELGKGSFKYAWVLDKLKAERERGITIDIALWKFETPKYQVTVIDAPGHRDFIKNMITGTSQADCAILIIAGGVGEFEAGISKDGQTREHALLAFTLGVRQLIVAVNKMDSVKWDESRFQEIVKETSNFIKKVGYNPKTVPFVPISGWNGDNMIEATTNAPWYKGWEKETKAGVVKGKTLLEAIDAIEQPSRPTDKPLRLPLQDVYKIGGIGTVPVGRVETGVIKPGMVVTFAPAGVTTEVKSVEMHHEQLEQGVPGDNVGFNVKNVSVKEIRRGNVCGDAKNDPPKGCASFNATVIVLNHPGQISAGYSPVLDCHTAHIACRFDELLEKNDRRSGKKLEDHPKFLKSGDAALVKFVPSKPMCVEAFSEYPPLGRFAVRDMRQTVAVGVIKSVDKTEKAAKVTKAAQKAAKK

[2] = system: 80S.IRES complex; assay: [3H]-AzAt photoaffinity labeling of 80S.IRES complex; format: binding, shrimp (Artemia salina); conditions: FIG. 2C
Procedure: Photoaffinity labeling with [^3H]-AzAt. Samples in Buffer 4, typically 20 μL, were incubated in the dark (20 min for Stop-POST5 and 80S-IRES complexes, 2 min for release factors) with various concentrations of [^3H]-AzAt at 37° C., transferred to a UV-transparent cuvette which was covered with parafilm to prevent evaporation, and irradiated in a Rayonet photochemical reactor equipped with 300 nm UV lamps for 5 min at room temperature. This was followed by quenching with 2 mM DTT at 37° C. for 5 min under ambient light. The irradiation time gave complete photolysis of the phenyl azide moiety in AzAt. Photolysis was also complete at 5 min in the presence of 1 mM ataluren, ruling out internal filtering effects.
Stop-POST5 and 80S-IRES complexes. 1 μM solutions of either Stop-POST5 or 80S-S.IRES, determined by A260, were photolabeled by [^3H]-AzAt. The sample was then either directly purified by ultracentrifugation through a sucrose cushion to determine the photoincorporation stoichiometry in the complex, or subjected to phenol/chloroform extraction to determine the photoincorporation stoichiometry in the total RNA. […]

SMILES | effect on productive binding of near-cognate TC at a stop codon [1] | photoincorporation stoichiometry into 80S.IRES, lower vs. Stop-POST5 [2] [%]
O=C(O)c1cccc(-c2noc(-c3ccccc3F)n2)c1 [Ataluren] | no effect | –
[N-]=[N+]=Nc1ccc(-c2nc(-c3cccc(C(=O)O)c3)no2)cc1 [AzAt] | – | 25
